We go through 27 compounds from patent publication US20090099195A1 (ASTRAZENECA AB, priority 2007, published 2009).

A value given as a limit tells only on which side of the number the result lay.

The target in this assay is T1, hP2X3 (human Purinergic P2X receptors subtype 3), clone A (Homo sapiens, UniProt P56373).
T1 sequence (P56373 1-397): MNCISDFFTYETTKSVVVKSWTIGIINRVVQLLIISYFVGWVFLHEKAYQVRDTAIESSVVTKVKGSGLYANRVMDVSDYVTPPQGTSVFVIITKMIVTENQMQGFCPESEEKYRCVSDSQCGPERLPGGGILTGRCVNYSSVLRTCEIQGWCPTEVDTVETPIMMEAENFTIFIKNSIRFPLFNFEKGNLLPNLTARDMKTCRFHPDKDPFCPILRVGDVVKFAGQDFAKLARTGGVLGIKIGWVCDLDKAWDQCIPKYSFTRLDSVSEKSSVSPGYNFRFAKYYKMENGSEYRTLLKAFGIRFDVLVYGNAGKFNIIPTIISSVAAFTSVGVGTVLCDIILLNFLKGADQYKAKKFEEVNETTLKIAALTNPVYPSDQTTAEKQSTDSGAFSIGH
Description: hP2X3 FLIPR calcium (Fluo-4) antagonist assay, clone A. The note with it: Human P2X3 FLIPR Clone A Mean IC50 (nM), RLE cells expressing hP2X3 clone A (AB016608); agonist 500 nM α,β-methylene-ATP.
Description: The assay used a calcium indicator dye (Fluo-4) that emits fluorescence, the intensity of which is related to the concentration of calcium that entered the cell when P2X3 was activated and the channel opened. Activation of hP2X3 or rat P2X3 and rat P2X2/3 (from the coexpression of rat P2X3 and rat P2×2) is elicited the by P2X3 agonist α,β methylene-ATP (Sigma M6517), and the resulting fluorescence is measured with a FLIPR II™ instrument (Molecular Devices). Compounds are tested for their ability to inhibit the agonist-induced fluorescent signal.
For the rat P2X2/3 HEK-TREX cells, induction of the rat P2X3 expression is used to generate the rat P2X2/3 channels in HEK-TREX cells and performed by addition of 1 μg/mL tetracycline (Invitrogen) 24 h prior to compounds testing to the HEK-TREX expressing the rat P2X2 constitutively. On the day of the experiment, the cells and test compounds are prepared as follows. […] After preparing the compounds, the medium is removed from the cell plates by inversion. A loading solution of 30 μL assay buffer containing 4 μM of the calcium indicator dye FLUO-4 AM (Molecular Probes F14202) is added to each well using a Multidrop (Labsystems). […] The incubation is terminated by washing the cells four times in assay buffer using a Skatron Embla (Molecular Devices), and 25 μL of assay buffer was left in each well. Cell plates are then transferred to the FLIPR. Experiments are initiated by measuring a baseline fluorescence reading for 10 seconds, followed by the addition of 12.5 μL of cpds and data sampling for a total 280 seconds. The experiments are terminated by addition of 12.5 μL of a reference agonist (500 nM α,β-methylene-ATP) or buffer, producing a final assay volume of 50 μL followed by data sampling for an additional 280 seconds.
In P2X3 antagonist experiments (human and rat assays) data are analysed as normalised maximal peak fluorescence monitored following agonist addition and calculated as percent of relative fluorescent counts from control agonist. The dose-response antagonist inhibition curves are analyzed in a 4-parameter sigmoidal fit using a non-linear curve-fitting program (XLfit version 5.0.6, ID Business Solutions Limited, Guildford, UK).
Take `CC(=O)N1CCN(c2nc(N[C@H](C)c3ccc(C4CC4)cc3)c3c(n2)C(=O)N(C(C)C)C3)CC1` [Example 192, (R)-2-(4-acetylpiperazin-1-yl)-4-(1-(4-cyclopropylphenyl)ethylamino)-6-isopropyl-5H-pyrrolo[3,4-d]pyrimidin-7(6H)-one]: the IC50 stood at 102 nM.

Regarding `CC(=O)N1CCN(c2nc(NCc3ccc4c(ccn4C)c3)c3c(n2)C(=O)N(C(C)C)C3)CC1` [Example 354, 2-(4-acetylpiperazin-1-yl)-6-(1-methylethyl)-4-{[(1-methyl-1H-indol-5-yl)methyl]amino}-5,6-dihydro-7H-pyrrolo[3,4-d]pyrimidin-7-one], the IC50 is 494 nM.

Take `CC(=O)N1CCN(c2nc3c(c(N(C)Cc4ccc5ccn(C)c5c4)n2)CN(C(C)C)C3=O)CC1` [Example 355, 2-(4-acetylpiperazin-1-yl)-6-(1-methylethyl)-4-{methyl[(1-methyl-1H-indol-6-yl)methyl]amino}-5,6-dihydro-7H-pyrrolo[3,4-d]pyrimidin-7-one]: the half-inhibitory concentration (IC50) turned out to be 5760 nM.

Turning to `CCOc1ccc([C@@H](C)Nc2nc(N3CCN(CC)C(=O)C3)nc3c2CN(C(C)C)C3=O)cc1` [Example 361, (R)-4-(1-(4-ethoxyphenyl)ethylamino)-2-(4-ethyl-3-oxopiperazin-1-yl)-6-isopropyl-5H-pyrrolo[3,4-d]pyrimidin-7(6H)-one], the IC50 came to 327 nM.

Turning to `CC(=O)N1CCN(c2nc(N[C@H](C)c3ccc(OCC4CC4)c(F)c3)c3c(n2)C(=O)N(C(C)C)C3)CC1` [Example 322, (R)-2-(4-acetylpiperazin-1-yl)-4-(1-(4-(cyclopropylmethoxy)-3-fluorophenyl)ethylamino)-6-isopropyl-5H-pyrrolo[3,4-d]pyrimidin-7(6H)-one], the IC50 amounted to 1900 nM.

For the compound `CC(=O)N1CCN(c2nc3c(c(N(C)Cc4cc5cc(C)ccc5cn4)n2)CN(C(C)C)C3=O)CC1` [Example 342, 2-(4-acetylpiperazin-1-yl)-6-isopropyl-4-(methyl((6-methylisoquinolin-3-yl)methyl)amino)-5H-pyrrolo[3,4-d]pyrimidin-7(6H)-one], the IC50 was 1230 nM.

Take `CC(C)N1Cc2c(nc(N3CCN(CC(F)(F)F)C(=O)C3)nc2N(C)Cc2cc3ccccc3cn2)C1=O` [Example 364, 6-isopropyl-4-((isoquinolin-3-ylmethyl)(methyl)amino)-2-(3-oxo-4-(2,2,2-trifluoroethyl)piperazin-1-yl)-5H-pyrrolo[3,4-d]pyrimidin-7(6H)-one]: the IC50 was 795 nM.

Take `CC(=O)N1CCN(c2nc3c(c(N(C)Cc4cc5cc(Cl)ccc5cn4)n2)CN(C(C)C)C3=O)CC1` [Example 348, 2-(4-acetylpiperazin-1-yl)-4-(((6-chloroisoquinolin-3-yl)methyl)(methyl)amino)-6-isopropyl-5H-pyrrolo[3,4-d]pyrimidin-7(6H)-one]: the IC50 amounted to 2720 nM.

On to `CC(=O)N1CCN(c2nc3c(c(N(C)Cc4cc5ccc(F)cc5cn4)n2)CN(C(C)C)C3=O)CC1` [Example 350, 2-(4-acetylpiperazin-1-yl)-4-(((7-fluoroisoquinolin-3-yl)methyl)(methyl)amino)-6-isopropyl-5H-pyrrolo[3,4-d]pyrimidin-7(6H)-one], for which the concentration for half-maximal inhibition (IC50) was found to be 29.9 nM.

For the compound `CCOc1ccc(CNc2nc(N3CCN(C(C)=O)CC3)nc3c2CN(C(C)C)C3=O)c(OC)c1` [Example 335, 2-(4-acetylpiperazin-1-yl)-4-(4-ethoxy-2-methoxybenzylamino)-6-isopropyl-5H-pyrrolo[3,4-d]pyrimidin-7(6H)-one], the IC50 was 225 nM.

On to `CC(=O)N1CCN(c2nc3c(c(N(C)Cc4ccc5c(c4)OC(F)(F)O5)n2)CN(C(C)C)C3=O)CC1` [Example 360, 2-(4-acetylpiperazin-1-yl)-4-(((2,2-difluorobenzo[d][1,3]dioxol-5-yl)methyl)(methyl)amino)-6-isopropyl-5H-pyrrolo[3,4-d]pyrimidin-7(6H)-one], for which the IC50 is more than 30000 nM.

On to `CC(=O)N1CCN(c2nc3c(c(N(C)Cc4cc5ccc(C)cc5cn4)n2)CN(C(C)C)C3=O)CC1` [Example 353, 2-(4-acetylpiperazin-1-yl)-6-isopropyl-4-(methyl((7-methylisoquinolin-3-yl)methyl)amino)-5H-pyrrolo[3,4-d]pyrimidin-7(6H)-one], for which the IC50 worked out at 61.1 nM.

On to `CC(=O)N1CCN(c2nc(NC(C)c3nc4ccccc4s3)c3c(n2)C(=O)N(C(C)C)C3)CC1` (stereo not drawn) [Example 236, 2-(4-acetylpiperazin-1-yl)-4-(1-(benzo[d]thiazol-2-yl)ethylamino)-6-isopropyl-5H-pyrrolo[3,4-d]pyrimidin-7(6H)-one], for which the IC50 was 564 nM.

In the case of `CCOc1ccc([C@@H](C)Nc2nc(N3CCN(CC(F)(F)F)C(=O)C3)nc3c2CN(C(C)C)C3=O)cc1` [Example 363, (R)-4-(1-(4-ethoxyphenyl)ethylamino)-6-isopropyl-2-(3-oxo-4-(2,2,2-trifluoroethyl)piperazin-1-yl)-5H-pyrrolo[3,4-d]pyrimidin-7(6H)-one], the 50% inhibitory concentration (IC50) was determined as 574 nM.

As to `COCc1ccc([C@@H](C)Nc2nc(N3CCN(C(C)=O)CC3)nc3c2CN(C(C)C)C3=O)cc1F` [Example 338, 2-(4-acetylpiperazin-1-yl)-4-({(1R)-1-[3-fluoro-4-(methoxymethyl)phenyl]ethyl}amino)-6-(1-methylethyl)-5,6-dihydro-7H-pyrrolo[3,4-d]pyrimidin-7-one], the IC50 was 2640 nM.

Turning to `CC(=O)N1CCN(c2nc(N[C@H](C)c3ccc(CO)cc3)c3c(n2)C(=O)N(C(C)C)C3)CC1` [Example 332, (R)-2-(4-acetylpiperazin-1-yl)-4-(1-(4-(hydroxymethyl)phenyl)ethylamino)-6-isopropyl-5H-pyrrolo[3,4-d]pyrimidin-7(6H)-one], the half-maximal inhibitory concentration (IC50) was more than 30000 nM.

In the case of `CCN1CCN(c2nc3c(c(N(C)Cc4cc5ccccc5cn4)n2)CN(C(C)C)C3=O)CC1=O` [Example 362, 2-(4-ethyl-3-oxopiperazin-1-yl)-6-isopropyl-4-((isoquinolin-3-ylmethyl)(methyl)amino)-5H-pyrrolo[3,4-d]pyrimidin-7(6H)-one], the IC50 turned out to be 356 nM.

With `CC(=O)N1CCN(c2nc(NCc3ccc4ccn(C)c4c3)c3c(n2)C(=O)N(C(C)C)C3)CC1` [Example 356, 2-(4-acetylpiperazin-1-yl)-6-(1-methylethyl)-4-{[(1-methyl-1H-indol-6-yl)methyl]amino}-5,6-dihydro-7H-pyrrolo[3,4-d]pyrimidin-7-one], the IC50 worked out at 1060 nM.

As for `CC(=O)N1CCN(c2nc(N[C@H](C)c3ccc(CN(C)C)cc3)c3c(n2)C(=O)N(C(C)C)C3)CC1` [Example 358, (R)-2-(4-acetylpiperazin-1-yl)-4-(1-(4-((dimethylamino)methyl)phenyl)ethylamino)-6-isopropyl-5H-pyrrolo[3,4-d]pyrimidin-7(6H)-one], the IC50 was more than 30000 nM.

As for `CCOc1ccc([C@@H](C)Nc2nc(N3CCN(C(C)=O)CC3)nc3c2CN(C(C)C)C3=O)c(OCC)c1` [Example 357, (R)-2-(4-acetylpiperazin-1-yl)-4-(1-(2,4-diethoxyphenyl)ethylamino)-6-isopropyl-5H-pyrrolo[3,4-d]pyrimidin-7(6H)-one], the IC50 came out at 163 nM.

`CC(=O)N1CCN(c2nc3c(c(N(C)Cc4cc5ccc(Cl)cc5cn4)n2)CN(C(C)C)C3=O)CC1` [Example 341, 2-(4-acetylpiperazin-1-yl)-4-(((7-chloroisoquinolin-3-yl)methyl)(methyl)amino)-6-isopropyl-5H-pyrrolo[3,4-d]pyrimidin-7(6H)-one]: the concentration for half-maximal inhibition (IC50) is 29.2 nM.

Take `CC(=O)N1CCN(c2nc3c(c(N4CCCC4c4ccc(C)c(C)c4)n2)CN(C(C)C)C3=O)CC1` (stereo not drawn) [Example 298, 2-(4-acetylpiperazin-1-yl)-4-[2-(3,4-dimethylphenyl)pyrrolidin-1-yl]-6-(1-methylethyl)-5,6-dihydro-7H-pyrrolo[3,4-d]pyrimidin-7-one]: the IC50 came out at 454 nM.

Consider `CCOc1ccc(CN(C)c2nc(N3CCN(C(C)=O)CC3)nc3c2CN(C(C)C)C3=O)c(OC)c1` [Example 334, 2-(4-acetylpiperazin-1-yl)-4-((4-ethoxy-2-methoxybenzyl)(methyl)amino)-6-isopropyl-5H-pyrrolo[3,4-d]pyrimidin-7(6H)-one], for which the IC50 turned out to be 2970 nM.

As to `CCOc1cc(OC)ccc1CN(C)c1nc(N2CCN(C(C)=O)CC2)nc2c1CN(C(C)C)C2=O` [Example 336, 2-(4-acetylpiperazin-1-yl)-4-((2-ethoxy-4-methoxybenzyl)(methyl)amino)-6-isopropyl-5H-pyrrolo[3,4-d]pyrimidin-7(6H)-one], the IC50 came out at 1610 nM.

On to `CCOc1ncc([C@@H](C)Nc2nc(N3CCN(C(C)=O)CC3)nc3c2CN(C(C)C)C3=O)cc1C` [Example 331, (R)-2-(4-acetylpiperazin-1-yl)-4-(1-(6-ethoxy-5-methylpyridin-3-yl)ethylamino)-6-isopropyl-5H-pyrrolo[3,4-d]pyrimidin-7(6H)-one], for which the half-inhibitory concentration (IC50) worked out at 195 nM.

Take `CC(=O)N1CCN(c2nc3c(c(N(C)Cc4cnn(-c5ccc(F)cc5)c4)n2)CN(C(C)C)C3=O)CC1` [Example 339, 2-(4-acetylpiperazin-1-yl)-4-[{[1-(4-fluorophenyl)-1H-pyrazol-4-yl]methyl}(methyl)amino]-6-(1-methylethyl)-5,6-dihydro-7H-pyrrolo[3,4-d]pyrimidin-7-one]: the IC50 came out at 2280 nM.

Turning to `CC(C)N1Cc2c(NC(C)(C)Cc3ccc(F)cc3)nc(N3CCn4ccnc4C3)nc2C1=O` [Example 340, 2-(5,6-dihydroimidazo[1,2-a]pyrazin-7(8H)-yl)-4-{[2-(4-fluorophenyl)-1,1-dimethylethyl]amino}-6-(1-methylethyl)-5,6-dihydro-7H-pyrrolo[3,4-d]pyrimidin-7-one], the half-maximal inhibitory concentration (IC50) amounted to 2710 nM.

One may read the IC50 as the concentration needed to halve the response being measured.
